Measured values taken from patent US8877748B2, “Heterocyclic fused anthraquinone derivatives, manufacturing method and pharmaceutical composition using thereof” (National Defense Medical Center, priority 2012, dated 2014).

Key:
NCI-H23 = test: NCI one-dose screening, non-small cell lung cancer NCI-H23; assay type: cell-based, human; conditions: NCI-H23, 10 μM
T-47D = test: NCI one-dose screening, breast cancer T-47D; assay type: cell-based, human; conditions: T-47D
SNB-19 = test: NCI one-dose screening, CNS cancer SNB-19; assay type: cell-based, human; conditions: SNB-19, 10 μM
ACHN = test: NCI one-dose screening, renal cancer ACHN; assay type: cell-based, human; conditions: ACHN
IGROV1 = test: NCI one-dose screening, ovarian cancer IGROV1; assay type: cell-based, human; conditions: IGROV1, 10 μM
SF-268 = test: NCI one-dose screening, CNS cancer SF-268; assay type: cell-based, human; conditions: SF-268, 10 μM
NCI-H226 = test: NCI one-dose screening, non-small cell lung cancer NCI-H226; assay type: cell-based, human; conditions: NCI-H226, 10 μM
MDA-MB-231/ATCC = test: NCI one-dose screening, breast cancer MDA-MB-231/ATCC; assay type: cell-based, human; conditions: MDA-MB-231/ATCC
OVCAR-4 = test: NCI one-dose screening, ovarian cancer OVCAR-4; assay type: cell-based, human; conditions: OVCAR-4, 10 μM
K562cell line = test: NCI one-dose screening, leukemia K562; assay type: cell-based, human; conditions: K562, 10 μM
COLO 205 = test: NCI one-dose screening, colon cancer COLO 205; assay type: cell-based, human; conditions: COLO 205, 10 μM
human tumor cell lines = test: NCI one-dose screening, mean, delta and range of growth percent over all cell lines tested; assay type: cell-based
CCRF-CEM = test: NCI screening platform one-dose single concentration screening, leukemia CCRF-CEM; assay type: cell-based, human; conditions: CCRF-CEM
PC-3 = test: NCI one-dose screening, prostate cancer PC-3; assay type: cell-based, human; conditions: PC-3, 10 μM
DU145 = test: NCI one-dose screening, prostate cancer DU145; assay type: cell-based, human; conditions: DU145, 10 μM
786-O = test: NCI one-dose screening, renal cancer 786-O; assay type: cell-based, human; conditions: 786-0, 10 μM
OVCAR-5 = test: NCI one-dose screening, ovarian cancer OVCAR-5; assay type: cell-based, human; conditions: OVCAR-5, 10 μM
[1] = test system: PC-3 prostate cancer cell line; test: SRB assay cell viability, PC-3 prostate cancer cell line; assay type: cell-based, human; conditions: Homo sapiens, PC-3 prostate cancer cell line, Table II prints no unit, μM printed, read-out: SRB assay: 50% inhibition of cancer cell proliferation of sample concentration (IC50) of PC-3 prostate cancer cell line
SK-MEL-5 = test: NCI one-dose screening, melanoma SK-MEL-5; assay type: cell-based, human; conditions: SK-MEL-5, 10 μM
SNB-75 = test: NCI one-dose screening, CNS cancer SNB-75; assay type: cell-based, human; conditions: SNB-75, 10 μM
SF-539 = test: NCI one-dose screening, CNS cancer SF-539; assay type: cell-based, human; conditions: SF-539, 10 μM
SK-MEL-2 = test: NCI one-dose screening, melanoma SK-MEL-2; assay type: cell-based, human; conditions: SK-MEL-2, 10 μM
UACC-257 = test: NCI one-dose screening, melanoma UACC-257; assay type: cell-based, human; conditions: UACC-257, 10 μM
MDA, -MB-435 = test: NCI one-dose screening, breast cancer MDA, -MB-435; assay type: cell-based, human; conditions: Melanoma, MDA-MB-435, 10 μM
HL-60, TB = test: NCI one-dose screening, leukemia HL-60, TB; assay type: cell-based, human; conditions: HL-60(TB)
HS 578-T = test: NCI one-dose screening, breast cancer HS 578-T; assay type: cell-based, human; conditions: Breast cancer, HS 578T, 10 μM
UO-31 = test: NCI one-dose screening, renal cancer UO-31; assay type: cell-based, human; conditions: UO-31, 10 μM
RXF, 393 = test: NCI one-dose screening, renal cancer RXF, 393; assay type: cell-based, human; conditions: RXF 393, 10 μM
U251 = test: NCI one-dose screening, CNS cancer U251; assay type: cell-based, human; conditions: U251, 10 μM
EKVX = test: NCI one-dose screening, non-small cell lung cancer EKVX; assay type: cell-based, human; conditions: EKVX
NCI-H322M = test: NCI one-dose screening, non-small cell lung cancer NCI-H322M; assay type: cell-based, human; conditions: Non-small cell lung cancer, NCI-H322M, 10 μM
HCC-2998 = test: NCI one-dose screening, colon cancer HCC-2998; assay type: cell-based, human; conditions: HCC-2998, 10 μM
HT29 = test: NCI one-dose screening, colon cancer HT29; assay type: cell-based, human; conditions: HT29, 10 μM
UACC-62 = test: NCI one-dose screening, melanoma UACC-62; assay type: cell-based, human; conditions: UACC-62, 10 μM
MCF7 = test: NCI one-dose screening, breast cancer MCF7; assay type: cell-based, human; conditions: MCF7, 10 μM
HCT-15 = test: NCI one-dose screening, colon cancer HCT-15; assay type: cell-based, human; conditions: HCT-15, 10 μM
LOX IMVI = test: NCI one-dose screening, melanoma LOX IMVI; assay type: cell-based, human; conditions: LOX IMVI
SF-295 = test: NCI one-dose screening, CNS cancer SF-295; assay type: cell-based, human; conditions: SF-295, 10 μM
KM12 = test: NCI one-dose screening, colon cancer KM12; assay type: cell-based, human; conditions: KM12, 10 μM
CAKI-1 = test: NCI one-dose screening, renal cancer CAKI-1; assay type: cell-based, human; conditions: CAKI-1, 10 μM
NCI-H522 = test: NCI one-dose screening, non-small cell lung cancer NCI-H522; assay type: cell-based, human; conditions: NCI-H522, 10 μM
NCI-H460 = test: NCI one-dose screening, non-small cell lung cancer NCI-H460; assay type: cell-based, human; conditions: NCI-H460, 10 μM
NCl/ADR-RES = test: NCI one-dose screening, breast cancer NCl/ADR-RES; assay type: cell-based, human; conditions: Ovarian cancer, NCI/ADR-RES

O=C1c2ccccc2C(=O)c2c1cc(N1CCCC1)c1nsnc21 [C7, 4-(pyrrolidine-1-yl)anthra-[2,1-c][1,2,5] thiadiazol-6,11-dione]
Growth Percent (10 μM) (NCI-H23): 59.74% | Growth Percent (10 μM) (T-47D): 78.19% | Growth Percent (10 μM) (SNB-19): 90.45% | Growth Percent (10 μM) (ACHN): 82.97% | Growth Percent (10 μM) (IGROV1): 75.83% | Growth Percent (10 μM) (SF-268): 98.43% | Growth Percent (10 μM) (NCI-H226): 78.66% | Growth Percent (10 μM) (MDA-MB-231/ATCC): 95.23% | Growth Percent (10 μM) (OVCAR-4): 77.50% | Growth Percent (10 μM) (K562cell line): 75.50% | Growth Percent (10 μM) (COLO 205): 82.13% | Growth Percent (10 μM), Delta (human tumor cell lines; Delta over all cell lines tested): 54.57% | Growth Percent (10 μM), Mean (human tumor cell lines; Mean over all cell lines tested): 85.69% | Growth Percent (10 μM), Range (human tumor cell lines; Range over all cell lines tested): 109.89% | Growth Percent (10 μM) (CCRF-CEM): 86.62% | Growth Percent (10 μM) (PC-3): 71.01% | Growth Percent (10 μM) (DU145): 105.08% | Growth Percent (10 μM) (786-O): 96.67% | Growth Percent (10 μM) (OVCAR-5): 111.75% | IC50 [1]: > 15 µM | Growth Percent (10 μM) (SK-MEL-5): 31.12% | Growth Percent (10 μM) (SNB-75): 94.52% | Growth Percent (10 μM) (SF-539): 97.27% | Growth Percent (10 μM) (SK-MEL-2): 115.43% | Growth Percent (10 μM) (UACC-257): 84.14% | Growth Percent (10 μM) (MDA, -MB-435): 105.87% | Growth Percent (10 μM) (HL-60, TB): 104.58% | Growth Percent (10 μM) (HS 578-T): 101.62% | Growth Percent (10 μM) (UO-31): 41.64% | Growth Percent (10 μM) (RXF, 393): 97.02% | Growth Percent (10 μM) (U251): 80.49% | Growth Percent (10 μM) (EKVX): 75.67% | Growth Percent (10 μM) (NCI-H322M): 82.34% | Growth Percent (10 μM) (HCC-2998): 104.58% | Growth Percent (10 μM) (HT29): 98.60% | Growth Percent (10 μM) (UACC-62): 95.64% | Growth Percent (10 μM) (MCF7): 59.71% | Growth Percent (10 μM) (HCT-15): 61.25% | Growth Percent (10 μM) (LOX IMVI): 69.55% | Growth Percent (10 μM) (SF-295): 87.02% | Growth Percent (10 μM) (KM12): 95.18% | Growth Percent (10 μM) (CAKI-1): 70.65% | Growth Percent (10 μM) (NCI-H522): 83.41% | Growth Percent (10 μM) (NCI-H460): 89.11% | Growth Percent (10 μM) (NCl/ADR-RES): 86.36%
